What all share (assay type): ADME
In series [1] the target is T1, Solute carrier organic anion transporter family member 1B3 (Homo sapiens, UniProt Q9NPD5).
T1 sequence (Q9NPD5 whole entry): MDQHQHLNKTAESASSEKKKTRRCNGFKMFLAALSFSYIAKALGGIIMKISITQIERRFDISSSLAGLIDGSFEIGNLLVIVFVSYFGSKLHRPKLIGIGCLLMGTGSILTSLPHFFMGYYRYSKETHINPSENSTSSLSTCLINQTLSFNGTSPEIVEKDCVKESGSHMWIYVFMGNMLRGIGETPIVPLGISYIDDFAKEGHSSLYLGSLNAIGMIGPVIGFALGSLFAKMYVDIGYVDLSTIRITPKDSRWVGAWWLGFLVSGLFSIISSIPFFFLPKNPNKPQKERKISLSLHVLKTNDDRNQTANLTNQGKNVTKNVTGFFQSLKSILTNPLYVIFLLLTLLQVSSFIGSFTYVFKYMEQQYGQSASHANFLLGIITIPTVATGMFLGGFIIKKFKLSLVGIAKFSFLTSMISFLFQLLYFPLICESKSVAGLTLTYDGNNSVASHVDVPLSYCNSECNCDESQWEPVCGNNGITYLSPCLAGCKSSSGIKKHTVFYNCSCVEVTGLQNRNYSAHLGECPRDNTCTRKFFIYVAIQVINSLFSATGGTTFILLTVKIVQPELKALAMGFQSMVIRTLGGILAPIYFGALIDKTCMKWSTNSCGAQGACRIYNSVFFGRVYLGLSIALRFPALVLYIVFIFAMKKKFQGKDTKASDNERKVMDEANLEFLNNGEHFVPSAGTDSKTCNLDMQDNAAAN
The experiment in a line: Substrates of transporters of clinical importance in the absorption and disposition of drugs, OATP1B3.

In series [2] the target is T2, Solute carrier family 15 member 1 (Homo sapiens, UniProt P46059).
T2 sequence (P46059 whole entry): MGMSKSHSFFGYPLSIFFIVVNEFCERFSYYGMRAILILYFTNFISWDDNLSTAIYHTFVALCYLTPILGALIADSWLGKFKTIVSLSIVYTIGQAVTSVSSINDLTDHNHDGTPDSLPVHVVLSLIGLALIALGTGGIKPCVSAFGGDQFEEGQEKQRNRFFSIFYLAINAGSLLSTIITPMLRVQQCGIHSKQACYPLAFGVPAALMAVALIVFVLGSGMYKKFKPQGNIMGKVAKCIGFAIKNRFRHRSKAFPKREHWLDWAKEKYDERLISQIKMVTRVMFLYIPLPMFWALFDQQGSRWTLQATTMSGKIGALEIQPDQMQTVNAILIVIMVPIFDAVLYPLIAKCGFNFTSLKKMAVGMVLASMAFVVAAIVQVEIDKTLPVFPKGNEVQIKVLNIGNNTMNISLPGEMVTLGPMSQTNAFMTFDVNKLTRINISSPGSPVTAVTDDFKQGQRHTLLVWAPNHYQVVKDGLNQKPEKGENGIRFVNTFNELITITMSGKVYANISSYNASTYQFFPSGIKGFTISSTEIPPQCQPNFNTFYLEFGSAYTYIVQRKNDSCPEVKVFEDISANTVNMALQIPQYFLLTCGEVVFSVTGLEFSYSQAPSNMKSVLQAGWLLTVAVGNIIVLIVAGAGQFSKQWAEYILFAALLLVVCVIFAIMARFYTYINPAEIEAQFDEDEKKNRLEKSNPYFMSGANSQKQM
In words: Substrates of transporters of clinical importance in the absorption and disposition of drugs, PEPT1.

For series [3], the target named is T3, Solute carrier family 15 member 2 (Homo sapiens, UniProt Q16348).
T3 sequence (Q16348 whole entry): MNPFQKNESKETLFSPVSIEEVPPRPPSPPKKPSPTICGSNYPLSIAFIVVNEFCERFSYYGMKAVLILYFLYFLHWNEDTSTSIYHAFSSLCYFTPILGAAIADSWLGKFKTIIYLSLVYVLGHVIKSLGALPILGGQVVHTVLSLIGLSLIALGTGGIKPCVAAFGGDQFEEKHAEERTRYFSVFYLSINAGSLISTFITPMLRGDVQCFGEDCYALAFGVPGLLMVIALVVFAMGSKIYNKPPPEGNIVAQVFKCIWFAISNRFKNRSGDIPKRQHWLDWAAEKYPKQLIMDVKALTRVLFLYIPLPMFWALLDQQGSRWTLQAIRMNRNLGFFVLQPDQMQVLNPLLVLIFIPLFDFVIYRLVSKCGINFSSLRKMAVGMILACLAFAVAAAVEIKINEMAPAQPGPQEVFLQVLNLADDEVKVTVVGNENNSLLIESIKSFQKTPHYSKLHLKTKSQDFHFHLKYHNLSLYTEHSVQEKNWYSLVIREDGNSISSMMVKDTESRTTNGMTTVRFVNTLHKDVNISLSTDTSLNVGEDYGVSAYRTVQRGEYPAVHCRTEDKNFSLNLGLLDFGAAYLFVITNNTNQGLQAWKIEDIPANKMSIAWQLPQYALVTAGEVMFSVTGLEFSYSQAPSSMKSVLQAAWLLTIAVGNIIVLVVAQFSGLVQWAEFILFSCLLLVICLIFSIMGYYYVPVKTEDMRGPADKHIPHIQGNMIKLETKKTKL
In words: Substrates of transporters of clinical importance in the absorption and disposition of drugs, PEPT2.

Series [4] has as its target T4, Solute carrier family 22 member 2 (Homo sapiens, UniProt O15244).
T4 sequence (O15244 whole entry): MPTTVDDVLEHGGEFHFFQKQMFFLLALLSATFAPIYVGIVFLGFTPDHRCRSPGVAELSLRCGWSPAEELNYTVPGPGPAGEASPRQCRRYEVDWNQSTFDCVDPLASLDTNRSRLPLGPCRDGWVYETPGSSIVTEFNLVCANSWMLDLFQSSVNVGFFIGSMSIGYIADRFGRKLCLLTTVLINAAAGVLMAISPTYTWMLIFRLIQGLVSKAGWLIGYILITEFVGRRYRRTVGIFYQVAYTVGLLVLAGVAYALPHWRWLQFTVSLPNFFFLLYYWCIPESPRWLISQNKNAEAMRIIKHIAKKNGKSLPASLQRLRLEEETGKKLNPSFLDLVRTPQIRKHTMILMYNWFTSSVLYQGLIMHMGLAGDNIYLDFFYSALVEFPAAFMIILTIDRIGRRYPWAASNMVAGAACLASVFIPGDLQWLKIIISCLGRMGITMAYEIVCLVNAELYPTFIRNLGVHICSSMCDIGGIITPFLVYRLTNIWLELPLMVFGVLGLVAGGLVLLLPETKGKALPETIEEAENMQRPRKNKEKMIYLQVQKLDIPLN
In words: Substrates of transporters of clinical importance in the absorption and disposition of drugs, OCT2.

In series [5] the target is T5, Solute carrier organic anion transporter family member 1A2 (Homo sapiens, UniProt P46721).
T5 sequence (P46721 whole entry): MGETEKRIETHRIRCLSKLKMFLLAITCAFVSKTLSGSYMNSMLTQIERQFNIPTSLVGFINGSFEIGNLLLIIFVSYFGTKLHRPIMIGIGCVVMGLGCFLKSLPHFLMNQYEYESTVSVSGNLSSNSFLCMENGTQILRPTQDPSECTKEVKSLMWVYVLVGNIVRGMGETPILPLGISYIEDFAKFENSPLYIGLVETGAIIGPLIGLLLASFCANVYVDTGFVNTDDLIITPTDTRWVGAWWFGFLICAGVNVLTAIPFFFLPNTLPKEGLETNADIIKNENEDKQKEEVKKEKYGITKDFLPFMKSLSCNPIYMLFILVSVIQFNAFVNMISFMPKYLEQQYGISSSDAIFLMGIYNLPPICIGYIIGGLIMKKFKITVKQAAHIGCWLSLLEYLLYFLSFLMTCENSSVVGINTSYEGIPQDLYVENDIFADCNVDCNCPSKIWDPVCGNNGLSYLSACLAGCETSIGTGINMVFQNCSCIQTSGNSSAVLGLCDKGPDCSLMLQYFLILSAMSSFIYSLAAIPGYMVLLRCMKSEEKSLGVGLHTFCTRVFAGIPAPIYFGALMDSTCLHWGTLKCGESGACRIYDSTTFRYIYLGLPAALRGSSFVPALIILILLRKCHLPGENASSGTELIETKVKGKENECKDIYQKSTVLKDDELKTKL
The experiment in a line: Substrates of transporters of clinical importance in the absorption and disposition of drugs, OATP1A2.

In series [6] the target is T6, Solute carrier organic anion transporter family member 1B1 (Homo sapiens, UniProt Q9Y6L6).
T6 sequence (Q9Y6L6 whole entry): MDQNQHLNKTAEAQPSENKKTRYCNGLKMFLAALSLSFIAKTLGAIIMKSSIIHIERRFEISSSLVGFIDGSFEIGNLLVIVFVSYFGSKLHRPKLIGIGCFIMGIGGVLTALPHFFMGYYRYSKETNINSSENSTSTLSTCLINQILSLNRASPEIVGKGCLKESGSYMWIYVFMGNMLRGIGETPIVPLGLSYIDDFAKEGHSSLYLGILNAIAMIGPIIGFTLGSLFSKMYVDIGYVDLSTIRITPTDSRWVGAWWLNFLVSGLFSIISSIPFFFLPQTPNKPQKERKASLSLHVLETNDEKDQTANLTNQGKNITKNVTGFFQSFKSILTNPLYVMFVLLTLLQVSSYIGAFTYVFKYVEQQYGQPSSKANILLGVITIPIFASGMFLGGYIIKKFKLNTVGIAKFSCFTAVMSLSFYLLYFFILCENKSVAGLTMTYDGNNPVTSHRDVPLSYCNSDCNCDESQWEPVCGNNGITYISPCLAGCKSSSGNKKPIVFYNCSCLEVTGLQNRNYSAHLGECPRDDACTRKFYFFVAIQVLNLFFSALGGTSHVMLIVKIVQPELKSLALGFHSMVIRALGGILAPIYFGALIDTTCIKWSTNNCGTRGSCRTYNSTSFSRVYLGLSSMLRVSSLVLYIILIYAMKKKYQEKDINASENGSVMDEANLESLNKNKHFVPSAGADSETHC
The experiment in a line: Substrates of transporters of clinical importance in the absorption and disposition of drugs, OATP1B1.

`CSCC[C@H](NC(=O)[C@H](Cc1ccc(OS(=O)(=O)O)cc1)NC(=O)[C@@H](N)CC(=O)O)C(=O)NCC(=O)N[C@@H](Cc1c[nH]c2ccccc12)C(=O)N[C@@H](CCSC)C(=O)N[C@@H](CC(=O)O)C(=O)N[C@@H](Cc1ccccc1)C(N)=O` [SINCALIDE]: the Activity result in series [1] was “transporter substrate”.

In the case of `CC(C)[C@H](N)C(=O)OCCOCn1cnc2c(=O)[nH]c(N)nc21` [VALACYCLOVIR], the Activity entry in series [2] and in series [3] was “transporter substrate” in each case.

In the case of `CNC(=C[N+](=O)[O-])NCCSCc1ccc(CN(C)C)o1` [RANITIDINE], the Activity result in series [4] is given as “transporter substrate”.

Regarding `C[C@@H]1O[C@@H](O[C@H]2C[C@@H](O)[C@]3(CO)[C@H]4[C@H](O)C[C@]5(C)[C@@H](C6=CC(=O)OC6)CC[C@]5(O)[C@@H]4CC[C@]3(O)C2)[C@H](O)[C@H](O)[C@H]1O` [OUABAIN], the Activity result in series [5] is given as “transporter substrate”.

Take `NC12CC3CC(CC(C3)C1)C2` [AMANTADINE]: the Activity entry in series [4] is on record as “transporter substrate”.

On to `CCOc1cc(CC(=O)N[C@@H](CC(C)C)c2ccccc2N2CCCCC2)ccc1C(=O)O` [REPAGLINIDE], for which, in series [6], the Activity result is given as “transporter substrate”.

With `CC1=C(C(=O)O)N2C(=O)[C@@H](NC(=O)[C@H](N)c3ccccc3)[C@H]2SC1` [CEPHALEXIN ANHYDROUS], the Activity entry in series [2] and in series [3] was “transporter substrate” throughout.

`N=C(N)NC(=O)c1nc(Cl)c(N)nc1N` [AMILORIDE]: the Activity result in series [4] was “transporter substrate”.

In the case of `CCCc1nc2c(C)cc(-c3nc4ccccc4n3C)cc2n1Cc1ccc(-c2ccccc2C(=O)O[C@@H]2O[C@H](C(=O)O)[C@@H](O)[C@H](O)[C@H]2O)cc1` [TELMISARTAN GLUCURONIDE], the Activity result in series [1] was “transporter substrate”.

Take `CC(C)C[C@H](NC(=O)[C@@H](O)[C@H](N)Cc1ccccc1)C(=O)O` [UBENIMEX]: the Activity result in series [2] and in series [3] was “transporter substrate” in each case.

Consider `CCOC(=O)[C@H](CCc1ccccc1)N[C@@H](C)C(=O)N1CCC[C@H]1C(=O)O`, for which the Activity entry in series [2] and in series [3] was “transporter substrate” throughout.

On to `C[C@H]1COc2c(N3CCN(C)CC3)c(F)cc3c(=O)c(C(=O)O)cn1c23.C[C@H]1COc2c(N3CCN(C)CC3)c(F)cc3c(=O)c(C(=O)O)cn1c23.O` [LEVOFLOXACIN], for which, in series [5], the Activity result is “transporter substrate”.

As to `CC(C)NCC(O)COc1cccc2[nH]ccc12` (stereo unspecified) [PINDOLOL], the Activity entry in series [4] is “transporter substrate”.

For `c1cnc2cc3c(cc2n1)[C@@H]1CNC[C@H]3C1` [VARENICLINE], the Activity entry in series [4] is recorded as “transporter substrate”.

With `CCCc1nc2c(C)cc(-c3nc4ccccc4n3C)cc2n1Cc1ccc(-c2ccccc2C(=O)O)cc1`, the Activity entry in series [1] is listed as “transporter substrate”.

For the molecule `C=CC1=C(C)/C(=C/c2[nH]c(Cc3[nH]c(/C=C4\NC(=O)C(C)=C4C=C)c(C)c3CCC(=O)O)c(CCC(=O)O)c2C)NC1=O` [BILIRUBIN], in series [6], the Activity result is reported as “transporter substrate”.

Take `C=CC1=C(C)/C(=C/c2[nH]c(Cc3[nH]c(/C=C4\NC(=O)C(C)=C4C=C)c(C)c3CCC(=O)O[C@@H]3O[C@H](C(=O)O)[C@@H](O)[C@H](O)[C@H]3O)c(CCC(=O)O[C@@H]3O[C@H](C(=O)O)[C@@H](O)[C@H](O)[C@H]3O)c2C)NC1=O` [BILIRUBIN GLUCURONIDE]: in series [6], the Activity result is on record as “transporter substrate”.
